Residues, ends and D or L forms follow the SMILES beside them. *: point of attachment. Myristoyl = CCCCCCCCCCCCCC(=O)*
System: erythrocytes
Assay: Haemoglobin assay of erythrocyte lysis
Assay type: cell-based, rats
Settings: rat erythrocytes, no bacteria; haemoglobin at 578 nm; 100% = Triton X100
Protocol: Fresh rats blood was obtained with sodium heparin added to prevent clotting. Following centrifugation at 600 g for 10 mins and discarding of the supernatant, the pelleted erythrocytes were resuspended and washed three times in isotonic sucrose-glucose phosphate buffer (0.2M sucrose, 0.1M glucose 10 mM sodium phosphate, pH 7.3). Erythrocytes were used on the same day.
Leakage of haemoglobin from the erythrocytes (50 μl aliquots) was assayed spectrophotometrically at 578 nm against isotonic sucrose glucose phosphate buffer. Percentage lysis of the erythrocytes was established by construction of a standard curve. The supernatant from the centrifuged cells (3.2) represented 0% whereas 100% lysis obtained by incubation with 20 ul 10% v/v Triton X100 for 10 minutes.
Cultures were centrifuged at 600 g for 10 minutes and the supernatant examined spectrophotometrically as described above to assess erythrocyte lysis. In the presence of particles (but no bacteria) erythrocyte lysis varied between 0.88 and 0.61% with a mean of 0.73%. Addition of M-GALA alone to erythrocytes produced a lysis of 0.31%. No lysis occurred for erythrocytes left in buffer only.

## CCCCCCCCCCCCCC(=O)N[C@@H](Cc1c[nH]c2ccccc12)C(=O)N[C@@H](CCC(=O)O)C(=O)N[C@@H](C)C(=O)N[C@@H](C)C(=O)N[C@@H](CC(C)C)C(=O)N[C@@H](C)C(=O)N[C@@H](CCC(=O)O)C(=O)N[C@@H](C)C(=O)N[C@@H](CC(C)C)C(=O)N[C@@H](C)C(=O)N[C@@H](CCC(=O)O)C(=O)N[C@@H](C)C(=O)N[C@@H](CC(C)C)C(=O)N[C@@H](C)C(=O)N[C@@H](CCC(=O)O)C(=O)N[C@@H](Cc1c[nH]cn1)C(=O)N[C@@H](CC(C)C)C(=O)N[C@@H](C)C(=O)N[C@@H](CCC(=O)O)C(=O)N[C@@H](C)C(=O)N[C@@H](CC(C)C)C(=O)N[C@@H](C)C(=O)N[C@@H](CCC(=O)O)C(=O)N[C@@H](C)C(=O)N[C@@H](CC(C)C)C(=O)N[C@@H](CCC(=O)O)C(=O)N[C@@H](C)C(=O)N[C@@H](CC(C)C)C(=O)N[C@@H](C)C(=O)N[C@@H](C)C(=O)O [M-GALA, N, Myristic-GALA] (Myristoyl-WEAALAEALAEALAEHLAEALAEALEALAA-OH)
  erythrocyte lysis: 0.31%
